Data taken from US7425572B2, “Use of dioxindoindazoles and dioxoloindazoles for treating glaucoma” (Alcon, Inc., priority 2004, dated 2008).
Structures can show the parent of a compound that is named as a salt.

What was measured:
[1] = target: T1, 5-HT2 receptor (A7r5 rat vascular smooth muscle cells) (Rattus norvegicus, UniProt P14842); assay: 5-HT2 functional assay: [Ca2+]i mobilization (FLIPR); format: cell-based; conditions: for EC50: [Ca2+]i mobilization; for Emax: percentage of maximum 5-HT-induced response, read-out: Efficacy (Emax, %)
T1 construct: endogenous in cells; host or cells: A7r5 rat vascular smooth muscle cells
Description: Method 2: 5-HT2 Functional Assay: [Ca^2+]i Mobilization
The receptor-mediated mobilization on intracellular calcium ([Ca^2+]i) was studied using the Fluorescence Imaging Plate Reader (FLIPR) instrument. Rat vascular smooth muscle cells, A7r5, were grown in a normal media of DMEM/10% FBS and 10 μg/mL gentamycin. Confluent cell monolayers were trypsinized, pelleted, and re-suspended in normal media. Cells were seeded in a […] volume at a density of 20,000 cells/well in a black wall, 96-well tissue culture plate and grown for 2 days.
On the day of the experiment, one vial of FLIPR Calcium Assay Kit dye was re-suspended in 50 mL of a FLIPR buffer consisting of Hank's Balanced Salt Solution (HBSS), 20 mM HEPES, and 2.5 mM probenecid, pH 7.4. Cells were loaded with the calcium-sensitive dye by addition of an equal volume (50 μL) to each well of the 96-well plate and incubated with dye for 1 h at 23° C.
Typically, test compounds were stored at 25 μM in 50% DMSO/50% Ethanol solvent. Compounds were diluted 1:50 in 20% DMSO/20% Ethanol. For “hit” screening, compounds were further diluted 1:10 in FLIPR buffer and tested at a final concentration of 10 μM. For dose-response experiments, compounds were diluted 1:50 in FLIPR buffer and serially diluted 1:10 to give a 5- or 8-point dose-response curve.
The compound plate and cell plate were placed in the FLIPR instrument. At the beginning of an experimental run, a signal test was performed to check the basal fluorescence signal from the dye-loaded cells and the uniformity of the signal across the plate. The basal fluorescence was adjusted between 8000-12000 counts by modifying the exposure time, the camera F-stop, or the laser power. Instrument settings for a typical assay were the following: laser power 0.3-0.6 W, camera F-stop F/2, and exposure time 0.4 sec. An aliquot (25 μL) of the test compound was added to the existing 100 μL dye-loaded cells at a dispensing speed of 50 μL/sec. Fluorescence data were collected in real-time at 1.0 sec intervals for the first 60 secs and at 6.0 sec intervals for an additional 120 secs. Responses were measured as peak fluorescence intensity minus basal and where appropriate were expressed as a percentage of a maximum 5-HT-induced response. When the compounds were tested as antagonists against 10 μM 5-HT, they were incubated with the cells for 15 minutes prior to the addition of 5-HT.

[2] = test system: lasered (hypertensive) eyes of conscious cynomolgus monkeys; assay: Acute IOP response in lasered (hypertensive) eyes of conscious cynomolgus monkeys; format: in vivo; conditions: lasered monkey eye
Description: Method 3: Acute IOP Response in Lasered (Hypertensive) Eyes of Conscious Cynomolgus Monkeys
Intraocular pressure (IOP) can be determined with an Alcon Pneumatonometer after light corneal anesthesia with 0.1% proparacaine. Eyes are washed with saline after each measurement. After a baseline IOP measurement, test compound is instilled in one 30 μL aliquot to the right eyes only of nine cynomolgus monkeys. Vehicle is instilled in the right eyes of six additional animals. Subsequent IOP measurements are taken at 1, 3, and 6 hours.
The above method was used to determine the IOP lowering efficacy of the compound of Example 1 (dosed at a concentration of 300 μg).

[3] = 1 hr after topical dose of 300 μg
[4] = 3 hrs after topical dose of 300 μg
[5] = 6 hrs after topical dose of 300 μg

T1 sequence (P14842 whole entry): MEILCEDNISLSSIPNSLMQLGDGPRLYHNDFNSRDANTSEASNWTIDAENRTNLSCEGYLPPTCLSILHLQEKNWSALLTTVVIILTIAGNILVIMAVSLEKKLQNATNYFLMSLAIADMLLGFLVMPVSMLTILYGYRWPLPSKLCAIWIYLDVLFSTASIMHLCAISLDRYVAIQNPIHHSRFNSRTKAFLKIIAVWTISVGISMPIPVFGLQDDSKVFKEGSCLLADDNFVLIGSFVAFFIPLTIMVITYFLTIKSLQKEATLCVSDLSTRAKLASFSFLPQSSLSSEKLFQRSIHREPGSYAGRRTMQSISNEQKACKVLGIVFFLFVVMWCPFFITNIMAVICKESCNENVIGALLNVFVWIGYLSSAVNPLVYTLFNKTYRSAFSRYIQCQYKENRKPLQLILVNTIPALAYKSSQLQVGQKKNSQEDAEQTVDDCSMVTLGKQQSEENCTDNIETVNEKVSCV

Structure (SMILES)	EC50 [1] [nM]	Emax [1] [%]	melting point [°C]	other results
COC(=O)NC[C@H]1COc2ccc3cnn(C[C@H](C)N)c3c2O1.Cl [Example 7, [(S)-1-((S)-2-Amino-propyl)-7,8-dihydro-1H-[1,4]dioxino[2,3-g]indazol-8-ylmethyl]-carbamic acid methyl ester hydrochloride]	92	66	265 to 266	–
C[C@H](N)Cn1ncc2ccc3c(c21)O[C@@H](CNS(C)(=O)=O)CO3.Cl [Example 4, N-[(S)-1-((S)-2-Amino-propyl)-7,8-dihydro-1H-[1,4]dioxino[2,3-g]indazol-8-ylmethyl]-methanesulfonamide hydrochloride]	78	81	235 to 236	–
CCS(=O)(=O)NC[C@H]1COc2ccc3cnn(C[C@H](C)N)c3c2O1.Cl [Example 5, Ethanesulfonic acid [(S)-1-((S)-2-amino-propyl)-7,8-dihydro-1H-[1,4]dioxino[2,3-g]indazol-8-ylmethyl]-amide hydrochloride]	67	82	243 to 244	–
C[C@H](N)Cn1ncc2ccc3c(c21)O[C@@H](CN)CO3 [Example 8, (S)-2-((S)-8-Aminomethyl-7,8-dihydro-[1,4]dioxino[2,3-g]indazol-1-yl)-1-methyl-ethylamine hydrochloride]	232	54	–	–
COC(=O)NC[C@@H]1COc2ccc3cnn(C[C@H](C)N)c3c2O1 [Example 9, [(R)-1-((S)-2-Amino-propyl)-7,8-dihydro-1H-[1,4]dioxino[2,3-g]indazol-8-ylmethyl]-carbamic acid methyl ester hydrochloride]	106	44	–	–
CC(C)C(=O)NC[C@H]1COc2ccc3cnn(C[C@H](C)N)c3c2O1 [Example 6, N-[(S)-1-((S)-2-Amino-propyl)-7,8-dihydro-1H-[1,4]dioxino[2,3-g]indazol-8-ylmethyl]-isobutyramide hydrochloride]	125	59	–	–
C[C@H](N)Cn1ncc2ccc3c(c21)O[C@H](CO)CO3.Cl [Example 2, [(R)-1-((S)-2-Aminopropyl)-7,8-dihydro-1H-[1,4]dioxino[2,3-g]indazol-8-yl]-methanol hydrochloride]	53	77	112 to 116	–
C[C@H](N)Cn1ncc2ccc3c(c21)OCCO3 [Example 3, (S)-2-(7,8-Dihydro-[1,4]dioxino[2,3-g]indazol-1-yl)-1-methyl-ethylamine hydrochloride]	27	92	–	–
C[C@H](N)Cn1ncc2ccc3c(c21)O[C@@H](CO)CO3 [Example 1, [(S)-1-((S)-2-Amino-propyl)-7,8-dihydro-1H-[1,4]dioxino[2,3-g]indazol-8-yl]-methanol hydrochloride]	31	39	–	IOP % change [2, 3]: −4.3%; IOP Change mmHg [2, 3]: −2.2 mmHg; IOP % change [2, 4]: −15.8%; IOP Change mmHg [2, 4]: −6.8 mmHg; IOP % change [2, 5]: −23.6%; IOP Change mmHg [2, 5]: −9.6 mmHg
C[C@H](N)Cn1ncc2ccc3c(c21)O[C@@H](CO)CO3 (as salt: hydrochloride) [Example 1, [(S)-1-((S)-2-Amino-propyl)-7,8-dihydro-1H-[1,4]dioxino[2,3-g]indazol-8-yl]-methanol hydrochloride]	–	–	202 to 203	–
